In paper PMC11091072, “Targeting bacterial nickel transport with aspergillomarasmine A suppresses virulence-associated Ni-dependent enzymes” (Nature Communications, 2024):
Converted amounts (≈) assume the structure as drawn. “And” between values parts separate entries of the source, which are not always exact repeats. Identical values can stand only once. Like-named read-outs stand apart in the source and are kept apart here. Peptide text beside a SMILES is read from it. * marks the point of attachment. Cbz = O=C(OCc1ccccc1)*

How the values were obtained:
[1] = tested on: K. pneumoniae urease activity (whole cell); assay: Checkerboard analysis of Zn-AMA and AHA on urease activity; assay type: cell-based, Klebsiella pneumoniae; details: Zn-AMA 0 μM
Procedure: To guide our exploration of the mode of action of Zn-AMA, we investigated whether a chemical-chemical interaction occurs with the urease inhibitor AHA. […] We subsequently performed inductively coupled plasma mass spectrometry (ICP-MS) analyses to evaluate the intracellular Ni^2+ and Zn^2+ content of K. pneumoniae.
K. pneumoniae whole-cell urease activity was determined with artificial urine containing 0.2% (w/v) casamino acids and 0.01% (w/v) phenol red in 96-well plates. For the growth of S. aureus in artificial urine, the medium was supplemented with 10% LB. After 20–24 hours of growth, bacteria were removed using 0.45 μm filter plates, and the final A550 of the medium was measured using a plate reader.
FIG S7 Evaluation of Zn-AMA as a direct inhibitor of urease. A) Checkerboard analysis of Zn-AMA and AHA on urease activity of K.
pneumoniae after growth for 24 h at 37 °C artificial urine. pH is represented by the color scale determined with phenol red. […]

[2] = tested on: K. pneumoniae urease activity (whole cell); assay: microbe, parasite or virus in culture; assay type: cell-based, Klebsiella pneumoniae ATCC 33495; details: for EC50: Klebsiella pneumoniae, read-out: EC50, half-maximal effective concentration required to suppress urease-dependent pH change; for K. pneumoniae urease-dependent pH change (pH): 37 °C
NikA [3] = assay type: binding, Klebsiella pneumoniae; details: 100 μM
K. pneumoniae = assay type: cell-based, Klebsiella pneumoniae; details: for Growth curve (culture density): 50 μM
HEK293 cells = assay: HEK293 cytotoxicity assay (Cell Titer Glo 2.0)
NikA [4] = molecular target: NikA (Klebsiella pneumoniae, UniProt A6TFA3); assay type: binding; details: for n (stoichiometry, ITC) / ∆H / −T∆S / ∆G: 37 °C; for n (stoichiometry, ITC) / ∆H / −T∆S / -∆TS / ∆G: pH 7.5; for -∆TS: Fig S13, 37 °C; for Kd: read-out: KD for NikA (ITC), 25 mM Tris-HCl, 150 mM NaCl, 0.1% Triton X-100, pH 7.5, 37 °C; for fold improvement of affinity for NikA: relative to Zn-AMA
NikA (Klebsiella pneumoniae, UniProt A6TFA3), sequence (A6TFA3 entry or part of it): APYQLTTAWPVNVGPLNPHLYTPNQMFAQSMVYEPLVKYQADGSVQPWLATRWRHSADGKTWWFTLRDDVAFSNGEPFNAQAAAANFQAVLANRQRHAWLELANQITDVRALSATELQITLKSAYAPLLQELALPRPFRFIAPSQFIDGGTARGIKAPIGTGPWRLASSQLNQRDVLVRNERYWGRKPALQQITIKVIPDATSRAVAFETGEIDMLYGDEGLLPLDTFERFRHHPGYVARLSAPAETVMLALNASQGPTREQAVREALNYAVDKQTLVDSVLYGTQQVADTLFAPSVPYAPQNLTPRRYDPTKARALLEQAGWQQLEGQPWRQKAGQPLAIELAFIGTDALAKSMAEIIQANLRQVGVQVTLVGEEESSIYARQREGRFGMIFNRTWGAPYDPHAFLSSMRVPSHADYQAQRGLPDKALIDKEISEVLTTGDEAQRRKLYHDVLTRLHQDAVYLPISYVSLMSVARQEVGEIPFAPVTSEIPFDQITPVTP

[5] = tested on: S. aureus urease activity (whole cell); assay type: cell-based, Staphylococcus aureus; details: S. aureus, artificial urine, 24 h
urease = molecular target: T1, urease (Klebsiella pneumoniae subsp. pneumoniae, UniProt A6TE40+A6TE41+A6TE42); assay: Urease activity in cell-free extracts (NH3 release, indophenol-hypochlorite); assay type: biochemical
T1 construct: endogenous in cells; host or cells: Klebsiella pneumoniae (ATCC 33495), sonicated and cleared lysate
T1 sequence (A6TE41 whole entry): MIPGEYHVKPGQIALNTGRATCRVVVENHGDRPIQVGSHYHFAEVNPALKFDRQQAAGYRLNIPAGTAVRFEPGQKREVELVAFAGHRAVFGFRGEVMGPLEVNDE
T1 sequence (A6TE40 whole entry): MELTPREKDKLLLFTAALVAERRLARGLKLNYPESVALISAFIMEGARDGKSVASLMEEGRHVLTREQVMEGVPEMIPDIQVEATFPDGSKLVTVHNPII
T1 sequence (A6TE42 whole entry): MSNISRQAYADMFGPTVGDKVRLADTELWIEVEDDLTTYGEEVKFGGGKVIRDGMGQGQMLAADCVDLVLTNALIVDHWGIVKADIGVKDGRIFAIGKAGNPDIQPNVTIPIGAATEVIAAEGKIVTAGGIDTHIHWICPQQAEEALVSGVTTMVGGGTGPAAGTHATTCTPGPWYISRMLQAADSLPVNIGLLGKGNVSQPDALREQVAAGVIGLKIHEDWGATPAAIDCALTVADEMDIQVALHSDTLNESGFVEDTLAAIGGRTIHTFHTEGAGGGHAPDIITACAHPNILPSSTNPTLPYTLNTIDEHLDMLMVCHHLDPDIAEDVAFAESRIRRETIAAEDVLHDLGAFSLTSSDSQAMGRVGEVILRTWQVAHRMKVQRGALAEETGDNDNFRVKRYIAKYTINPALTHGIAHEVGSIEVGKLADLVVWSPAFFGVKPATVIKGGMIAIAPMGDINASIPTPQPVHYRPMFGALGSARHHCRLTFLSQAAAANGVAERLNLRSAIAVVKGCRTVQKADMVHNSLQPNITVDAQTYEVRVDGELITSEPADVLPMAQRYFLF
Procedure: The cells were subsequently lysed by sonication, and cell debris was removed with centrifugation (20,000 × g, 10 min). […] Liberated NH3 was quantified using the indophenol-hypocholorite reaction as previously described. The total amount of protein was quantified by Bradford assay using bovine serum albumin as standard. Each assay was performed in duplicate wells.
FIG S7 Evaluation of Zn-AMA as a direct inhibitor of urease. A) Checkerboard analysis of Zn-AMA and AHA on urease activity of K. […]
Dose- […]
response curves of fluorofamide, Zn-AMA, and AMA inhibiting the urease-catalyzed release of NH3 quantified with indophenol hypochlorite. The rates of NH3 production were measured over 20 min and were normalized to total protein concentration. Experiments were performed in duplicate. Individual replicates are shown as colored circles.

[6] = K. pneumoniae, artificial urine, 24 h
[7] = K. pneumoniae, artificial urine

Structure (SMILES): CC(=O)NO [AHA, acetohydroxamic acid, reference compound]
- Urease-dependent pH change (pH) ([1]; AHA 0.1 mM): 7.94
- Urease-dependent pH change (pH) ([1]; AHA 0.2 mM): 8.07
- Urease-dependent pH change (pH) ([1]; AHA 0.4 mM): 7.88
- Urease-dependent pH change (pH) ([1]; AHA 0.5 mM): 8.25
- Urease-dependent pH change (pH) ([1]; AHA 0.8 mM): 7.28
- Urease-dependent pH change (pH) ([1]; AHA 1.6 mM): 6.77
- concentration required to achieve similar urease suppression [2, 6]: 12.8 mM

Structure (SMILES): [Cl-].[Cl-].[Co+2] [Co^2+, CoCl2]
- effect on stability of recombinant NikA (NikA [3]): did not affect it

Structure (SMILES): CC(=NO)C(C)=NO [DMG, dimethylglyoxime, reference compound]
- Growth curve (culture density) (K. pneumoniae; 15.15 h): 0.125 and 0.12
- Growth curve (culture density) (K. pneumoniae; 16.15 h): 0.131 and 0.126
- Growth curve (culture density) (K. pneumoniae; 17.15 h): 0.14 and 0.136
- growth with urea as sole nitrogen source (K. pneumoniae; Chelex-treated nitrogen-limited medium): did not

Structure (SMILES): CC(C)C[C@@H](C=O)NC(=O)[C@H](CC(C)C)NC(=O)[C@H](CC(C)C)NC(=O)OCc1ccccc1 [MG132, reference compound] (Cbz-Leu-Leu-Leu-aldehyde)
- IC50 (HEK293 cells; Homo sapiens, HEK293, 48 h, read-out: IC50 (HEK293 viability)): 0.144 µg/mL (≈ 0.303 µM)
- HEK 293T cytotoxicity assay raw signal (HEK293 cells; MG-132 0.06 μg/mL): 553546 and 645337 and 439066
- HEK 293T cytotoxicity assay raw signal (HEK293 cells; MG-132 0.12 μg/mL): 287630 and 290638 and 251825
- HEK 293T cytotoxicity assay raw signal (HEK293 cells; MG-132 0.24 μg/mL): 228174 and 211174 and 145724
- HEK 293T cytotoxicity assay raw signal (HEK293 cells; MG-132 0.49 μg/mL): 127375 and 103739 and 100640
- HEK 293T cytotoxicity assay raw signal (HEK293 cells; MG-132 0.98 μg/mL): 76026 and 78297 and 72041
- HEK 293T cytotoxicity assay raw signal (HEK293 cells; MG-132 1.95 μg/mL): 47803 and 50917 and 47518
- HEK 293T cytotoxicity assay raw signal (HEK293 cells; MG-132 7.81 μg/mL): 52239 and 45457 and 61991
- HEK 293T cytotoxicity assay raw signal (HEK293 cells; MG-132 15.63 μg/mL): 62587 and 49620 and 71962
- HEK 293T cytotoxicity assay raw signal (HEK293 cells; MG-132 31.25 μg/mL): 50870 and 51533 and 85262

Structure (SMILES): [Cl][Ni][Cl] [Ni^2+, NiCl2]
- effect on stability of recombinant NikA (NikA [3]): did not affect it

Structure (SMILES): NC(=O)C[C@H](NC[C@H](NC[C@H](N)C(=O)O)C(=O)O)C(=O)O.[Zn+2] [Zn-AMA(Asn)]
- n (stoichiometry, ITC) (NikA [4]): 1.14
- ∆H (NikA [4]): -13.1 kcal/mol
- −T∆S (NikA [4]): 4.7 kcal/mol
- -∆TS (NikA [4]): 4.73
- Kd (NikA [4]): 1.3 ± 0.1 µM
- fold improvement of affinity for NikA (NikA [4]): 7 fold
- Urease-dependent pH change (pH) [2]: 7.81 and 7.93 and 7.88 and 7.95
- EC50 [2, 7]: 24 ± 6 µM
- Urease-dependent pH change (pH) ([2]; Zn-AMA(Asn) 0.19 μM): 7.83 and 7.99
- Urease-dependent pH change (pH) ([2]; Zn-AMA(Asn) 0.39 μM): 7.94 and 7.95
- Urease-dependent pH change (pH) ([2]; Zn-AMA(Asn) 3.12 μM): 7.74 and 7.82
- Urease-dependent pH change (pH) ([2]; Zn-AMA(Asn) 6.25 μM): 7.67 and 7.74
- Urease-dependent pH change (pH) ([2]; Zn-AMA(Asn) 12.5 μM): 7.43 and 7.67
- Urease-dependent pH change (pH) ([2]; Zn-AMA(Asn) 25 μM): 7.11 and 7.36
- Urease-dependent pH change (pH) ([2]; Zn-AMA(Asn) 50 μM): 6.62 and 7.12
- Urease-dependent pH change (pH) ([2]; Zn-AMA(Asn) 100 μM): 6.33 and 6.91
- Urease-dependent pH change (pH) ([2]; Zn-AMA(Asn) 200 μM): 6.43 and 6.83

Structure (SMILES): N[C@@H](CN[C@@H](CN[C@@H](Cc1cnc[nH]1)C(=O)O)C(=O)O)C(=O)O.[Zn+2] [Zn-AMA(His)]
- n (stoichiometry, ITC) (NikA [4]): 0.76
- ∆H (NikA [4]): -13.1 kcal/mol
- −T∆S (NikA [4]): 4.5 kcal/mol
- -∆TS (NikA [4]): 4.48
- Kd (NikA [4]): 0.8 ± 0.1 µM
- fold improvement of affinity for NikA (NikA [4]): 7 fold
- Urease-dependent pH change (pH) [2]: 7.86 and 7.89 and 7.93 and 7.91
- EC50 [2, 7]: > 200 µM
- Urease-dependent pH change (pH) ([2]; Zn-AMA(His) 0.19 μM): 7.92 and 7.89
- Urease-dependent pH change (pH) ([2]; Zn-AMA(His) 0.39 μM): 7.95 and 7.91
- Urease-dependent pH change (pH) ([2]; Zn-AMA(His) 3.12 μM): 7.87 and 7.86
- Urease-dependent pH change (pH) ([2]; Zn-AMA(His) 6.25 μM): 7.78 and 7.90
- Urease-dependent pH change (pH) ([2]; Zn-AMA(His) 12.5 μM): 7.75 and 7.83
- Urease-dependent pH change (pH) ([2]; Zn-AMA(His) 25 μM): 7.73 and 7.87
- Urease-dependent pH change (pH) ([2]; Zn-AMA(His) 50 μM): 7.68 and 7.86
- Urease-dependent pH change (pH) ([2]; Zn-AMA(His) 100 μM): 7.57 and 7.81
- Urease-dependent pH change (pH) ([2]; Zn-AMA(His) 200 μM): 7.66 and 7.82

Structure (SMILES): N[C@@H](CN[C@@H](CC(=O)O)C(=O)O)C(=O)O.[Zn+2] [Zn-Toxin A]
- n (stoichiometry, ITC) (NikA [4]): 1.15
- ∆G (NikA [4]): -7.4 kcal/mol
- ∆H (NikA [4]): -9.6 kcal/mol
- −T∆S (NikA [4]): 2.2 kcal/mol
- ∆G (NikA [4]; listed as Zn-toxin A): -7.41 kcal/mol
- ∆H (NikA [4]; listed as Zn-toxin A): -9.61 kcal/mol
- -∆TS (NikA [4]): 2.20
- Kd (NikA [4]): 6 ± 0.8 µM
- Urease-dependent pH change (pH) ([2]; Zn-Toxin A 0.19 μM): 7.83 and 7.80
- Urease-dependent pH change (pH) ([2]; Zn-Toxin A 0.39 μM): 7.83 and 7.88
- Urease-dependent pH change (pH) ([2]; Zn-Toxin A 0.78 μM): 7.88 and 7.78
- Urease-dependent pH change (pH) ([2]; Zn-Toxin A 1.56 μM): 7.66 and 7.81
- Urease-dependent pH change (pH) ([2]; Zn-Toxin A 3.12 μM): 7.79 and 7.72
- Urease-dependent pH change (pH) ([2]; Zn-Toxin A 6.25 μM): 7.83 and 7.77
- Urease-dependent pH change (pH) ([2]; Zn-Toxin A 12.5 μM): 7.84 and 7.79
- Urease-dependent pH change (pH) ([2]; Zn-Toxin A 25 μM): 7.79 and 7.82
- Urease-dependent pH change (pH) ([2]; Zn-Toxin A 50 μM): 7.77 and 7.81
- Urease-dependent pH change (pH) ([2]; Zn-Toxin A 100 μM): 7.79 and 7.77
- Urease-dependent pH change (pH) ([2]; Zn-Toxin A 200 μM): 7.66 and 7.69

Structure (SMILES): [Cl-].[Cl-].[Zn+2] [ZnCl2, reference compound]
- effect on stability of recombinant NikA (NikA [3]): stabilized NikA
- K. pneumoniae urease-dependent pH change (pH) ([2]; 0.39 μM, artificial urine, 24 h): 8.18 and 8.29
- K. pneumoniae urease-dependent pH change (pH) ([2]; 0.78 μM, artificial urine, 24 h): 8.27 and 8.39
- K. pneumoniae urease-dependent pH change (pH) ([2]; 1.56 μM, artificial urine, 24 h): 8.17 and 8.34
- K. pneumoniae urease-dependent pH change (pH) ([2]; 3.12 μM, artificial urine, 24 h): 8.20 and 8.42
- K. pneumoniae urease-dependent pH change (pH) ([2]; 6.25 μM, artificial urine, 24 h): 8.19 and 8.30
- K. pneumoniae urease-dependent pH change (pH) ([2]; 12.5 μM, artificial urine, 24 h): 8.23 and 8.21
- K. pneumoniae urease-dependent pH change (pH) ([2]; 25 μM, artificial urine, 24 h): 8.25 and 8.11
- K. pneumoniae urease-dependent pH change (pH) ([2]; 50 μM, artificial urine, 24 h): 8.14 and 8.06
- K. pneumoniae urease-dependent pH change (pH) ([2]; 100 μM, artificial urine, 24 h): 8.06 and 8.01
- K. pneumoniae urease-dependent pH change (pH) ([2]; 200 μM, artificial urine, 24 h): 7.51 and 7.49
- effect on urease activity [2, 6]: did not affect urease activity
- effect on urease activity [5]: did not affect urease activity

Structure (SMILES): NP(N)(=O)NC(=O)c1ccc(F)cc1 [fluorfamide, reference compound]
- Specific activity (cell-free indophenol urease assay) (urease; Fluorofamide 0.000122 mM): 36.97 nmol/min/mg and 30.98 nmol/min/mg
- Specific activity (cell-free indophenol urease assay) (urease; Fluorofamide 0.000244 mM): 36.32 nmol/min/mg and 35.04 nmol/min/mg
- Specific activity (cell-free indophenol urease assay) (urease; Fluorofamide 0.000488 mM): 34.40 nmol/min/mg and 35.26 nmol/min/mg
- Specific activity (cell-free indophenol urease assay) (urease; Fluorofamide 0.000977 mM): 30.98 nmol/min/mg and 33.12 nmol/min/mg
- Specific activity (cell-free indophenol urease assay) (urease; Fluorofamide 0.001953 mM): 25.00 nmol/min/mg and 23.72 nmol/min/mg
- Specific activity (cell-free indophenol urease assay) (urease; Fluorofamide 0.003906 mM): 16.88 nmol/min/mg
- Specific activity (cell-free indophenol urease assay) (urease; Fluorofamide 0.007813 mM): 7.48 nmol/min/mg and 7.26 nmol/min/mg
- Specific activity (cell-free indophenol urease assay) (urease; Fluorofamide 0.015625 mM): 2.56 nmol/min/mg and 2.35 nmol/min/mg
- Specific activity (cell-free indophenol urease assay) (urease; Fluorofamide 0.03125 mM): 0.85 nmol/min/mg and 0.64 nmol/min/mg
- Specific activity (cell-free indophenol urease assay) (urease; Fluorofamide 0.0625 mM): 0.21 nmol/min/mg
